Columns and labels:
[1] = target: TGFBR1 (ALK5) (Homo sapiens, UniProt P36897); experiment: SelectScreen kinase profiling, TGFBR1 (ALK5); format: binding; settings: cell free, read-out: Enzyme inhibitory activity IC50
Experimental: The in vitro kinase inhibitory assays in the presence of compounds 323-1 and 323-2 were carried out according to the Z′-LYTE™ Screening and LanthaScreen Eu Kinase Binding Assays Experimental Procedures in Invitrogen (ThermoFisher Scientific, Waltham, Mass., USA). For the Z′-LYTE™ Screening profiling for FRAP1 (mTOR), JAK3, and LTK (TYK1), a mixture containing the test compounds in 100% DMSO, 2.4 μL Kinase buffer (50 mM HEPES pH 7.5, 0.01% BRIJ-35, 10 mM MgCl2, 1 mM EGTA), 5 μL 2× Peptide/Kinase Mixture, 2.5 μL 4×ATP Solution were added into black 384-well low volume NBS and bar-coded corning plate (Corning Cat. #4514) and shake the plate for 30 seconds. After incubation at RT for 60 min, 5 μL Development Reagent Solution was added into plate and shake the plate for 30 seconds, followed by Development Reaction incubation at RT for 60 min. Read on fluorescence plate reader and analyze the data. […]
Inhibition by compounds 323-1 and 323-2 of MAP2K4 (MEK4) and TGFBR1 (ALK5) was determined by […]. Inhibition by compounds 323-1 and 323-2 of FRAP1 (mTOR), JAK3, and LTK (TYK1) was determined by […] using the Adapta Universal Kinase Assay (Life Technologies). […]

[2] = target: AKT1 (PKB alpha) (Homo sapiens, UniProt P31749); experiment: SelectScreen kinase profiling, AKT1; format: biochemical; settings: read-out: Enzyme inhibitory activity IC50
[3] = target: EGFR (ErbB1) (Homo sapiens, UniProt P00533); experiment: SelectScreen kinase profiling, EGFR; format: biochemical; settings: read-out: Enzyme inhibitory activity IC50
[4] = target: FGFR2 (Homo sapiens, UniProt P21802); experiment: SelectScreen kinase profiling, FGFR2; format: biochemical; settings: read-out: Enzyme inhibitory activity IC50
[5] = target: FLT1 (VEGFR1) (Homo sapiens, UniProt P17948); experiment: SelectScreen kinase profiling, FLT1; format: biochemical; settings: read-out: Enzyme inhibitory activity IC50
[6] = target: FLT4 (VEGFR3) (Homo sapiens, UniProt P35916); experiment: SelectScreen kinase profiling, FLT4; format: biochemical; settings: read-out: Enzyme inhibitory activity IC50
[7] = target: HCK (Homo sapiens, UniProt P08631); experiment: SelectScreen kinase profiling, HCK; format: biochemical; settings: read-out: Enzyme inhibitory activity IC50
[8] = target: JAK1 (Homo sapiens, UniProt P23458); experiment: SelectScreen kinase profiling, JAK1; format: biochemical; settings: read-out: Enzyme inhibitory activity IC50
[9] = target: LYN A (Homo sapiens, UniProt P07948); experiment: SelectScreen kinase profiling, LYN A; format: biochemical; settings: read-out: Enzyme inhibitory activity IC50
[10] = target: LYN B (Homo sapiens, UniProt P07948); experiment: SelectScreen kinase profiling, LYN B; format: biochemical; settings: read-out: Enzyme inhibitory activity IC50
[11] = target: MAPK1 (ERK2) (Homo sapiens, UniProt P28482); experiment: SelectScreen kinase profiling, MAPK1; format: biochemical; settings: read-out: Enzyme inhibitory activity IC50
[12] = target: MAPK3 (ERK1) (Homo sapiens, UniProt P27361); experiment: SelectScreen kinase profiling, MAPK3; format: biochemical; settings: read-out: Enzyme inhibitory activity IC50
[13] = target: MAPK8 (JNK1) (Homo sapiens, UniProt P45983); experiment: SelectScreen kinase profiling, MAPK8; format: biochemical; settings: read-out: Enzyme inhibitory activity IC50
[14] = target: MET (cMet) (Homo sapiens, UniProt P08581); experiment: SelectScreen kinase profiling, MET; format: biochemical; settings: read-out: Enzyme inhibitory activity IC50
[15] = target: PRKCD (PKC delta) (Homo sapiens, UniProt Q05655); experiment: SelectScreen kinase profiling, PRKCD; format: biochemical; settings: read-out: Enzyme inhibitory activity IC50
[16] = target: SRC (Homo sapiens, UniProt P12931); experiment: SelectScreen kinase profiling, SRC; format: biochemical; settings: read-out: Enzyme inhibitory activity IC50
[17] = target: TYK2 (Homo sapiens, UniProt P29597); experiment: SelectScreen kinase profiling, TYK2; format: biochemical; settings: read-out: Enzyme inhibitory activity IC50
[18] = system: STAT3 target genes (Cyclin D1, BCL-XL, MCL1, Survivin, PARP); experiment: Western blot of STAT3 target gene proteins; format: cell-based, human
Experimental: As reported, aberrant STAT3 regulates the expression of downstream target genes involved in anti-apoptosis (Bcl-2, Mcl-1, survivin, and Bcl-xL), cell cycle (cyclin D1 and c-Myc), angiogenesis (VEGF and HIF1α), invasion and metastasis (MMP-1, MMP-2, MMP-9) and the inhibition of host immune surveillance. To further identify the characterization of the properties of 323-1 and 323-2, DU145, EPT3-M1-STAT3 and LNCaP cells were treated with 323-1 and 323-2 followed by western blotting.
To obtain the results shown in FIG. 13, EPT3M1-STAT3 or LNCaP cells were treated with DMSO, 20 μM of compound 323-1, or 20 μM of compound 323-2 for 48 hrs, respectively. Lysates were analysed and loaded to western blotting.

[19] = target: T1, STAT3 dimerization (Homo sapiens, UniProt P40763); experiment: Co-immunoprecipitation of HA-STAT3 and FLAG-STAT3 in 293T cells; format: cell-based; settings: 50 μM, 24 hours, compared with S3I-201 (200 μM)
T1 construct: expressed in transfected cells; host or cells: 293T cells
Experimental: 293T cells were collected in the medium and centrifuged at 800 g x 5 min, then washed with cold PBS twice before adding 500 μl Pierce™ IP Lysis Buffer (Thermofisher Scientific, 87787), containing protease and phosphatase inhibitor cocktail without DTT (Roche, 11836153001), into the cells. Cell lysates were passed several times through a 27^1/2-gauge needle to disrupt the nuclei. 1-2 mg extracts were added with pre-cleaned 50 μL slurry of Pierce™ […] Magnetic Agarose (Thermoscientific, A36797), then supernatant were collect with magnet and immunoprecipitated (IP) at RT on a rotator for 30 min. Beads were boiled at 95° C. for 5 min followed by adding the 100 μL of 1× Non-reducing Sample Buffer (Thermofisher Scientific, 39000) into beads. The supernatant was collected with a magnet and then added 5 μL of 1M DTT (Thermoscientific, P2325) into sample prior to proceeding the immunoblotting.
Nuclear translocation of the STAT3 dimers mediates the STAT3 transcriptional activity.

[20] = EPT3-M1-STAT3 and LNCaP cells, 20 μM, 48 hrs

TGFBR1 (ALK5), sequence (P36897 34-503): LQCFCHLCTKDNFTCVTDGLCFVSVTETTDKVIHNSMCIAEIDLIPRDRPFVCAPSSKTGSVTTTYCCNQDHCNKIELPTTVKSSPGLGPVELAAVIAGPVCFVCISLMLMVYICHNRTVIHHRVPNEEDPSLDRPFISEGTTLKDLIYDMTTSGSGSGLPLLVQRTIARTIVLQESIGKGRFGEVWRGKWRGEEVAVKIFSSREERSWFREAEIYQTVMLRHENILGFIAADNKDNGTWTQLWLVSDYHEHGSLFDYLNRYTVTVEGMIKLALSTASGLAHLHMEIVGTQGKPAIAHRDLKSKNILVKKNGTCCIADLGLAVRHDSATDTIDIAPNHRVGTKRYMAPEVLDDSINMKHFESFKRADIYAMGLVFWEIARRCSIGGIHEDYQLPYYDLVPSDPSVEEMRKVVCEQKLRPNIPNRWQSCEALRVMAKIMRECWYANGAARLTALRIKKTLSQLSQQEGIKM
MAPK8 (JNK1), sequence (P45983 whole entry): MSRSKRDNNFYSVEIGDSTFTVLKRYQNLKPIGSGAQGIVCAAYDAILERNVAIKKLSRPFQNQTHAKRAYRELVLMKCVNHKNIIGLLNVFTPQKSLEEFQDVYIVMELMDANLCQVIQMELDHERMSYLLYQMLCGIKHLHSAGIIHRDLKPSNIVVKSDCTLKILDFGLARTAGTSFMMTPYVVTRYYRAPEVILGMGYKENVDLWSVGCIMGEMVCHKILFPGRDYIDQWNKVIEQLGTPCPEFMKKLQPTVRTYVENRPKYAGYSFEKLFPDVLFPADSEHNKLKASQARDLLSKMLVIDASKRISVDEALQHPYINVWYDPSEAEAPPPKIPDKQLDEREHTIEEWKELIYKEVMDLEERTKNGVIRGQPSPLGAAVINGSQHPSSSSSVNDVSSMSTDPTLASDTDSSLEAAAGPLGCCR
MAPK3 (ERK1), sequence (P27361 whole entry): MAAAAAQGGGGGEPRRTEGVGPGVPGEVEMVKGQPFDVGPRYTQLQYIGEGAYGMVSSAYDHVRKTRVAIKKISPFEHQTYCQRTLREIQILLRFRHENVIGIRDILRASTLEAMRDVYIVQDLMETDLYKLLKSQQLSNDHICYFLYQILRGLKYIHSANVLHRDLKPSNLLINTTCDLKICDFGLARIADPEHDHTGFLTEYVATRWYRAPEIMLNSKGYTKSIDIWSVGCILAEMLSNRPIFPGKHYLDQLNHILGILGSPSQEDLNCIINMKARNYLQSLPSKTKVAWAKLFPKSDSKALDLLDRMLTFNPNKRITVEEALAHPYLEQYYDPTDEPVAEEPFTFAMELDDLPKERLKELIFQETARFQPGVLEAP
JAK1, sequence (P23458 whole entry): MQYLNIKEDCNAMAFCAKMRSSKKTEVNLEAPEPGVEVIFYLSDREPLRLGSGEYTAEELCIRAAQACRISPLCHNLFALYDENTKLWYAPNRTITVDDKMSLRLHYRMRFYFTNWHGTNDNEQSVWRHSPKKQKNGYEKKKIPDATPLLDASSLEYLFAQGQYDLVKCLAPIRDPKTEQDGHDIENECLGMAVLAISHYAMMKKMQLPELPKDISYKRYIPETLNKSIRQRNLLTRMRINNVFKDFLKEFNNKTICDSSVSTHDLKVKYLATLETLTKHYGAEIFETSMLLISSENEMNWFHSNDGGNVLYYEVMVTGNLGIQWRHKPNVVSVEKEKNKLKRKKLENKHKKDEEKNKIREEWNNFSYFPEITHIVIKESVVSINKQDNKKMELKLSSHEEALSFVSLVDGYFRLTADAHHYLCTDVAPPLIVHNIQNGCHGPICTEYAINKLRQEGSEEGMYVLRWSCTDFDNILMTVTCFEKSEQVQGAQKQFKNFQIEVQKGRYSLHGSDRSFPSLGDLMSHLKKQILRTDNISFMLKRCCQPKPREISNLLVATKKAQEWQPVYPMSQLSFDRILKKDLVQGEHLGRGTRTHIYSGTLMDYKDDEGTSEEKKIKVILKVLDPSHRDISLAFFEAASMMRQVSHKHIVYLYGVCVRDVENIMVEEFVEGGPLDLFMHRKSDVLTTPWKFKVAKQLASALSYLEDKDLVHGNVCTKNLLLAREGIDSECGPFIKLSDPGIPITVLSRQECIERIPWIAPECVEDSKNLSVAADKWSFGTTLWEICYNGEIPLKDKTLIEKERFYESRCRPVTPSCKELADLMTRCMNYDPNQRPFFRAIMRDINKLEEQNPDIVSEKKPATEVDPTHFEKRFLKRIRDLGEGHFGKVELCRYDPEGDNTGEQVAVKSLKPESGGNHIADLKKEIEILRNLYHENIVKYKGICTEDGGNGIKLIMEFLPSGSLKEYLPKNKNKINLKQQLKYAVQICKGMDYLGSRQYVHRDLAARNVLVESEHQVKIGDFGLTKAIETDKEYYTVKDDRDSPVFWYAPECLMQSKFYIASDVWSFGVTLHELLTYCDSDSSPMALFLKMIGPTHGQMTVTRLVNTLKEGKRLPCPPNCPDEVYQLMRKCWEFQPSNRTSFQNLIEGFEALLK
MAPK1 (ERK2), sequence (P28482 whole entry): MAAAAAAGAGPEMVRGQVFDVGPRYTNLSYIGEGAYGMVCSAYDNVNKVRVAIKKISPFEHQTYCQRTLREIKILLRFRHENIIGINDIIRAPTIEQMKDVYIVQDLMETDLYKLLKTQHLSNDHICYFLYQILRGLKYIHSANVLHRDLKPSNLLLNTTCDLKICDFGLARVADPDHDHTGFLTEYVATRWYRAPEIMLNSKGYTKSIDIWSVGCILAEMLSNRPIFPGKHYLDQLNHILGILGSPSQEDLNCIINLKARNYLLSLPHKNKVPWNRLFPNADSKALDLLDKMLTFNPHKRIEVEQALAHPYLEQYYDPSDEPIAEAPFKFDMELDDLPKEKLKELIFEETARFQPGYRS
FGFR2, sequence (P21802 22-821): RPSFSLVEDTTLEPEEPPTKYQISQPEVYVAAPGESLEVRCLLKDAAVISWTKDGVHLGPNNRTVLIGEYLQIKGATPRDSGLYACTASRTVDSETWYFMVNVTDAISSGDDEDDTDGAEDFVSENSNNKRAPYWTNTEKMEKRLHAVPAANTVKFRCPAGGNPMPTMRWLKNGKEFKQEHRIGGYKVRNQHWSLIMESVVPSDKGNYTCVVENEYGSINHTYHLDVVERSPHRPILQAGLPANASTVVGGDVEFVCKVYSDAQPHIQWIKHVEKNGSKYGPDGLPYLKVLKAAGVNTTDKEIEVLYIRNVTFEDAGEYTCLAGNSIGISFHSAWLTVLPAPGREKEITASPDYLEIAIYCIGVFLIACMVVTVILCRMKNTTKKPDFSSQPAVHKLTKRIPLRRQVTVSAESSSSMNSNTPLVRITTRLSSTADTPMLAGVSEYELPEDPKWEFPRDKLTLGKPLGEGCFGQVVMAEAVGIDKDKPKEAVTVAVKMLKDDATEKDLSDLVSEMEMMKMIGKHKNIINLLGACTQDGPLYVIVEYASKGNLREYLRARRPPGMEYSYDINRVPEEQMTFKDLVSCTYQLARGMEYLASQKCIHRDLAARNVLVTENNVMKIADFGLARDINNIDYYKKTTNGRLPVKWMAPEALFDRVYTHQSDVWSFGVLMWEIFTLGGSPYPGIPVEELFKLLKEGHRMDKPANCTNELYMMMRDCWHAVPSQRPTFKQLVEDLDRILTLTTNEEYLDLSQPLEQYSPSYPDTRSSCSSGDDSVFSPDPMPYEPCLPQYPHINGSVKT
LYN B, sequence (P07948 1-491 isoform P07948-2): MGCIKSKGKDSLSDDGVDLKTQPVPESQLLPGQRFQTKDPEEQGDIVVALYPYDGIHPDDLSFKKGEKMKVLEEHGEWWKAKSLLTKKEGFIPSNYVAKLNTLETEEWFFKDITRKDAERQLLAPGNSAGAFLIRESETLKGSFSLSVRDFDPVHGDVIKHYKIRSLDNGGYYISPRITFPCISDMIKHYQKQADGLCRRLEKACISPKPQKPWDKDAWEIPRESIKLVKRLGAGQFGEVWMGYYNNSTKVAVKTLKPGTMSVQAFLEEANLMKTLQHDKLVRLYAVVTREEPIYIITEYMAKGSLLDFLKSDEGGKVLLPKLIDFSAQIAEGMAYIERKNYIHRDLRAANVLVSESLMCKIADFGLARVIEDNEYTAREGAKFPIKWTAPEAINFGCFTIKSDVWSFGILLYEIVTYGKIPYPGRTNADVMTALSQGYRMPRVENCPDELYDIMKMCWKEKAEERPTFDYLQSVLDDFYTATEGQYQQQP
AKT1 (PKB alpha), sequence (P31749 whole entry): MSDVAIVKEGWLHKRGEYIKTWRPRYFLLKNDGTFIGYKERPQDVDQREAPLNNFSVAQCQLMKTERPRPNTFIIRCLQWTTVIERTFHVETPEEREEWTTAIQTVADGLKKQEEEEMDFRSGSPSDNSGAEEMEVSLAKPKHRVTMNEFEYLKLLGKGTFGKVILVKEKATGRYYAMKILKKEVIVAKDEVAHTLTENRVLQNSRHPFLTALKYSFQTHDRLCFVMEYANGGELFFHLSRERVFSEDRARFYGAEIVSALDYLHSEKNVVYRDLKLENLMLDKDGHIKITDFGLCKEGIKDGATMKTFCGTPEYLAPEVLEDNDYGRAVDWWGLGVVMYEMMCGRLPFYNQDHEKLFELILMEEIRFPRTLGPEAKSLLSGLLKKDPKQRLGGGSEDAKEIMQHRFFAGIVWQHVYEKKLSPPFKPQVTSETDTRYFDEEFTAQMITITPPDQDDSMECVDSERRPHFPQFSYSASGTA

Row | Compound | IC50 [1] [µM] | IC50 [2] [µM] | IC50 [3] [µM] | IC50 [4] [µM] | IC50 [5] [µM] | IC50 [6] [µM] | IC50 [7] [µM] | IC50 [8] [µM] | IC50 [9] [µM] | IC50 [10] [µM] | IC50 [11] [µM] | IC50 [12] [µM] | IC50 [13] [µM] | IC50 [14] [µM] | IC50 [15] [µM] | IC50 [16] [µM] | IC50 [17] [µM] | also measured
1 | C[C@@H]1CCC(c2cc3c4c(cncc4c2)[C@H](C)C3)=C1C=O [323-1, (15R,2R)-Delavatine A] | 7.95 | > 20 | > 20 | > 20 | > 20 | > 20 | > 20 | > 20 | > 20 | > 20 | > 20 | > 20 | > 20 | > 20 | > 20 | > 20 | > 20 | –
2 | C[C@@H]1CCC(c2cc3c4c(cncc4c2)[C@@H](C)C3)=C1C=O [323-2, (15S,2R)-Delavatine A] | 9.25 | > 20 | > 20 | > 20 | > 20 | > 20 | > 20 | > 20 | > 20 | > 20 | > 20 | > 20 | > 20 | > 20 | > 20 | > 20 | > 20 | Protein level of STAT3 target gene MCL1 [18, 20]: repressed; Protein level of Survivin or PARP [18, 20]: but not Survivin or PARP; Expression of Cyclin D1 ([18]; LNCaP cells): down-regulated dose-dependently; Dimerization of STAT3 (HA-STAT3/FLAG-STAT3) [19]: could disrupt the dimerization of STAT3

Reference: patent US20230286919A1, “ISOQUINOLINE DERIVATIVES FOR USE IN THERAPY” (Vestlandets Innovasjonsselskap AS, priority 2020, published 2023)
